Experimental data: patent publication US7294615B1, “Compounds that associate on the intermolecular level and aggregate bodies that contain them” (priority 1999, dated 2007)
Like-named read-outs stand apart in the source and are kept apart here.

Legend:
[1] = test system: Influenza virus A/Duck/Alberta/60/67 H12N5; assay type: binding
[2] = test system: influenza virus strain A/NIB/H1N1/89M; assay: FBI test, inhibition of viral adhesion (Table 9); conditions: 6'SLN as reference compound (=1)
PK15 cells = conditions: read-out: Concentration at which 50% inhibition of cytotoxicity was achieved, human serum, 10% rabbit serum complement
[3] = test system: Influenza virus A/NIB/44/90M H3N2; assay: Fetuin binding inhibition (FBI) test, inhibition of viral cell adhesion; conditions: for Relative activity: FBI test, Neu5AcαBn as reference compound (=1), specific activity per Neu5Ac group; for Kd: inhibitor virus complex
[4] = Gel permeation chromatography of aggregates; assay type: physicochemical; conditions: for Aggregate, %: determined by gel permeation chromatography
Excerpt: (§1) The formation of aggregates in solution can be observed by light scattering experiments or by gel permeation chromatography.
The compound of the general formula (I) Neu5Ac-Gab-ACm-Ad-Gly5-NHCH2-]4C (m=1-3) associates at room temperature in aqueous and organic solvents.
Silica gel 60 (40-63 μm) (Merck) was used for column chromatography. Sephadex of types LH-20, G-10, G-25 (Pharmacia, Sweden) and TSK-4000 (HPLC) were used for gel permeation chromatography.

[5] = Light scattering, particle size of aggregates; assay type: physicochemical
Description: as §1
The light scattering experiments were carried out using the following apparatus: Coultronics Coulter N4-MD (He-Ne laser, λ=632.8 nm, measurement of the scattering at an angle of 62.5° to the incident light beam), Spectra-Physics 164 (argon laser, λ=528.7 nm and λ=611.5 nm, measurement of the scattering at an angle of 90° to the incident light beam).
The investigation into the light scattering of a 50 mM solution of compound (22a) in water was carried out using a Spectra-Physics 164 argon laser (plasma lines λ=528.7 and 611.5 nm), the scattering was measured at an angle of 90° to the incident light beam. The particle size thereby determined was <2.5 nm. 50 μl of 0.8M NaHCO3 solution were added to the resulting solution. The light scattering was measured, as described above, the average particle size thereby determined was 200-400 nm.
50 μl of a 0.8M HCl was added to the resulting solution, and the sample was investigated by means of light scattering, as described above. The particle size thereby determined was <2.5 nm.

Compound: CC(=O)N[C@H]1[C@H]([C@H](O)[C@H](O)CO)O[C@@](O[C@H]2[C@@H](O)[C@@H](CO)O[C@@H](O[C@H]3[C@H](O)[C@@H](O)C(O)O[C@@H]3CO)[C@@H]2O)(C(=O)O)C[C@@H]1O (some centres unmarked) [3'SL, reference compound]
- Relative activity ([1]; FBI test, 3'SL as reference compound (=1), specific activity per 3'SL group): 1
- Kd ([1]; fetuin binding assay, inhibitor virus complex): 20000 nM

Compound: CC(=O)N[C@H]1[C@H]([C@H](O)[C@H](O)CO)O[C@](OC[C@H]2O[C@@H](O[C@H]3[C@H](O)[C@@H](NC(C)=O)C(O)O[C@@H]3CO)[C@H](O)[C@@H](O)[C@H]2O)(C(=O)O)C[C@@H]1O (some centres unmarked) [6'SLN, reference compound]
- Relative activity [2]: 1

Compound: O=C(CCCCCNC(=O)CCCCCNC(=O)CCCCC(=O)NCCCO[C@@H]1O[C@H](CO)[C@H](O)[C@H](O[C@H]2O[C@H](CO)[C@H](O)[C@H](O)[C@H]2O)[C@H]1O)NCCCCCC(=O)NCC(=O)NCC(=O)NCC(=O)NCC(=O)NCC(=O)NCC(CNC(=O)CNC(=O)CNC(=O)CNC(=O)CNC(=O)CNC(=O)CCCCCNC(=O)CCCCCNC(=O)CCCCCNC(=O)CCCCC(=O)NCCCO[C@@H]1O[C@H](CO)[C@H](O)[C@H](O[C@H]2O[C@H](CO)[C@H](O)[C@H](O)[C@H]2O)[C@H]1O)(CNC(=O)CNC(=O)CNC(=O)CNC(=O)CNC(=O)CNC(=O)CCCCCNC(=O)CCCCCNC(=O)CCCCCNC(=O)CCCCC(=O)NCCCO[C@@H]1O[C@H](CO)[C@H](O)[C@H](O[C@H]2O[C@H](CO)[C@H](O)[C@H](O)[C@H]2O)[C@H]1O)CNC(=O)CNC(=O)CNC(=O)CNC(=O)CNC(=O)CNC(=O)CCCCCNC(=O)CCCCCNC(=O)CCCCCNC(=O)CCCCC(=O)NCCCO[C@@H]1O[C@H](CO)[C@H](O)[C@H](O[C@H]2O[C@H](CO)[C@H](O)[C@H](O)[C@H]2O)[C@H]1O [Compound 49, {Galα1-3Galβ1-O(CH2)3NH—CO(CH2)4CO—(NH(CH2)5CO)3—(NHCH2CO)5—NHCH2—]4C}x]
- IC50 (PK15 cells): 500 nM

Compound: OC[C@H]1O[C@H](O[C@H]2[C@@H](O)[C@@H](CO)OC(O)[C@@H]2O)[C@H](O)[C@@H](O)[C@H]1O (some centres unmarked) [Galα1-3Gal, reference compound]
- IC50 (PK15 cells): 200000 nM

Compound: CC(=O)N[C@H]1[C@H]([C@H](O)[C@H](O)CO)O[C@@](OCc2ccccc2)(C(=O)O)C[C@@H]1O [Neu5Acα-OBn, reference compound]
- Relative activity [3]: 1
- Kd ([3]; fetuin binding assay): 100000 nM

Compound: CC(=O)N[C@@H]1[C@@H](O)[C@H](O[C@@H]2O[C@H](CO[C@]3(C(=O)O)C[C@H](O)[C@@H](NC(C)=O)[C@H]([C@H](O)[C@H](O)CO)O3)[C@H](O)[C@H](O)[C@H]2O)[C@@H](CO)O[C@H]1NC(=O)CNC(=O)CCCCC(=O)NCC(=O)NCC(=O)NCC(=O)NCC(CNC(=O)CNC(=O)CNC(=O)CNC(=O)CCCCC(=O)NCC(=O)N[C@@H]1O[C@H](CO)[C@@H](O[C@@H]2O[C@H](CO[C@]3(C(=O)O)C[C@H](O)[C@@H](NC(C)=O)[C@H]([C@H](O)[C@H](O)CO)O3)[C@H](O)[C@H](O)[C@H]2O)[C@H](O)[C@H]1NC(C)=O)(CNC(=O)CNC(=O)CNC(=O)CNC(=O)CCCCC(=O)NCC(=O)N[C@@H]1O[C@H](CO)[C@@H](O[C@@H]2O[C@H](CO[C@]3(C(=O)O)C[C@H](O)[C@@H](NC(C)=O)[C@H]([C@H](O)[C@H](O)CO)O3)[C@H](O)[C@H](O)[C@H]2O)[C@H](O)[C@H]1NC(C)=O)CNC(=O)CNC(=O)CNC(=O)CNC(=O)CCCCC(=O)NCC(=O)N[C@@H]1O[C@H](CO)[C@@H](O[C@@H]2O[C@H](CO[C@]3(C(=O)O)C[C@H](O)[C@@H](NC(C)=O)[C@H]([C@H](O)[C@H](O)CO)O3)[C@H](O)[C@H](O)[C@H]2O)[C@H](O)[C@H]1NC(C)=O [{Neu5Acα2-6Galβ1-4GlcNAcβ1-NHCOCH2NH—CO(CH2)4CO—(NHCH2CO)3—NHCH2—}4C, reference compound]
- Gel permeation HPLC peaks ([4]; TSK-4000 column, 0.2M NaCl): only one peak is observed, which corresponds to the molecular weight of the monomer

Compound: [6′-SLN-Ap-Ad-AC2-Gly5-NHCH2]4C [Compound 54]
- Relative activity [2]: 1000

Compound: [6′SLN-Ap-Ad-Gly7-NHCH2]4C [Compound 53]
- Relative activity [2]: 100

Compound: [HCl.H-Gly7-NHCH2-]4C [Compound 22a]
- Particle size ([5]; 50 mM solution in water): < 2.5 nm
- Association state ([5]; after addition of 0.8M NaHCO3 solution): self-association of the compound is achieved
- Average particle size ([5]; after addition of 50 μl 0.8M NaHCO3 solution): 200-400 nm
- Particle size ([5]; after subsequent addition of 50 μl 0.8M HCl): < 2.5 nm
- Association state ([5]; water at 20° C.): non-associated form

Compound: [Neu5Ac-Gab-AC2-Ad-Gly5-NHCH2-]4C [Compound 46]
- Relative activity [3]: 330
- Kd ([3]; fetuin binding assay): 300 nM
- Aggregate, % [4]: 92%

Compound: [Neu5Ac-Gab-AC3-Ad-Gly5-NHCH2-]4C [Compound 47]
- Relative activity [3]: 1000
- Kd ([3]; fetuin binding assay): 100 nM
- Aggregate, % [4]: 96%

Compound: [Neu5Ac-Gab-AC-Ad-Gly5-NHCH2-]4C [Compound 45]
- Relative activity [3]: 15
- Kd ([3]; fetuin binding assay): 7000 nM
- Aggregate, % [4]: 12%

Compound: [Neu5Ac-Gab-Ad-AC2-Gly5-NHCH2-]4C [Compound 43]
- Relative activity [3]: 1000
- Kd ([3]; fetuin binding assay): 100 nM
- Aggregate, % [4]: 6%

Compound: [Neu5Acα-OCH2(p-C6H4)NHCOCH2NH—CO(CH2)4CO—(NH(CH2)5CO)3—(NHCH2CO)5—NHCH2—]4C [Compound 44]
- Relative activity [3]: 2500
- Increase in specific activity in comparison with free ligand Neu5AcαBn ([3]; fetuin binding assay): more than three orders of magnitude
- Kd ([3]; fetuin binding assay): 40 nM
- Aggregate, % [4]: 54%

Compound: {[Neu5Acα2-3Galβ1-4Glcβ1-NHCOCH2NH—CO(CH2)4CO—(NHCH2CO)5—NHCH2—]4C}x [Compound 50]
- Kd [1]: 1000 nM
- Relative activity [1]: 20

Compound: {[Neu5Acα2-3Galβ1-4Glcβ1-NHCOCH2NH—CO(CH2)4CO—(NHCH2CO)7—NHCH2—]4C}x [Compound 51]
- Kd [1]: 100 nM
- Relative activity [1]: 200

Compound: {[Neu5Acα-OCH2(p-C6H4)NHCOCH2NH—CO(CH2)4CO—(NHCH2CO)7—NHCH2—]4C} [Compound 48]
- Kd ([3]; fetuin binding assay): 100 nM
- Particle size of aggregates ([5]; water, 60° C.): up to 8000 nm
- Relative activity [2]: <0.2
